Laboratory results taken from ChEMBL document CHEMBL1137165, “Rational design of potent and selective NH-linked aryl/heteroaryl cathepsin K inhibitors” (Bioorg Med Chem Lett, 2004).

Assays:
[1] = target: Cathepsin K (Oryctolagus cuniculus, UniProt P43236); assay: Inhibitory concentration against humanized rabbit cathepsin K
[2] = Compound was evaluated for its increased potency in bone resorption assay; type: functional
[3] = target: Cathepsin S (Homo sapiens, UniProt P25774); assay: Inhibitory concentration against human cathepsin S
Cathepsin S, sequence (P25774 whole entry): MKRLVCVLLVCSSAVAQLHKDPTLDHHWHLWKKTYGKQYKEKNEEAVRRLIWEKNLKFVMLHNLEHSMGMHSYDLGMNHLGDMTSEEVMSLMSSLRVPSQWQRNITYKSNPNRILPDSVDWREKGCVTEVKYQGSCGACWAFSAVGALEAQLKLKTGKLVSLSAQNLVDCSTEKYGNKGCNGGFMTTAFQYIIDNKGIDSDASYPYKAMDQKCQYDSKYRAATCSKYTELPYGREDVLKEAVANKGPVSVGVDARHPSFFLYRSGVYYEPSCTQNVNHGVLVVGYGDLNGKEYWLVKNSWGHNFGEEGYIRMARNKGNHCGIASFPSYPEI

[4] = target: Cathepsin B (Homo sapiens, UniProt P07858); assay: Inhibitory concentration against human cathepsin B
[5] = target: Procathepsin L (Homo sapiens, UniProt P07711); assay: Inhibitory concentration against human cathepsin L
Procathepsin L, sequence (P07711 whole entry): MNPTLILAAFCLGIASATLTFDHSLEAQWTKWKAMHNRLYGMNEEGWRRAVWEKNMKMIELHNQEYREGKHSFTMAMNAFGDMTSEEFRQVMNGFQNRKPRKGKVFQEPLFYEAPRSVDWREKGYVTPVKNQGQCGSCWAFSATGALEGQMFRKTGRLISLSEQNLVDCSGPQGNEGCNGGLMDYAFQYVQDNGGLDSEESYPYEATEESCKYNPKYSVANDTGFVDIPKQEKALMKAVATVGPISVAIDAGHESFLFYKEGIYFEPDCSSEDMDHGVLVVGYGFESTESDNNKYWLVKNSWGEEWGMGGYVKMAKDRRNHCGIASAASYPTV

[6] = target: T1, Cathepsin K (Homo sapiens, UniProt P43235); assay: Inhibitory concentration against human cathepsin K
T1 sequence (P43235 whole entry): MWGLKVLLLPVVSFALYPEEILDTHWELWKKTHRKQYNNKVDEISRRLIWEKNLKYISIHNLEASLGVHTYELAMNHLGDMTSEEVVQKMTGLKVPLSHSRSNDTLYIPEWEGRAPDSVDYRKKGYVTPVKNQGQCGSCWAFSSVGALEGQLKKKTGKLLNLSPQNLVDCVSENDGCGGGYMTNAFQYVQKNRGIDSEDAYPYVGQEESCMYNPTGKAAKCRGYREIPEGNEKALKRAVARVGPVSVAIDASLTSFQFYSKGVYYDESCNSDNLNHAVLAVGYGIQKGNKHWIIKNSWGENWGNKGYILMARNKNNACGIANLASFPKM

Row | IC50 [1] [nM] | IC50 [3] [nM] | IC50 [4] [nM] | IC50 [5] [nM] | IC50 [6] [nM] | SMILES | Activity [2] [nM]
1 | 54 |  |  |  |  | CC(C)CC(Nc1ccccc1Br)C(=O)NCC#N (stereo not given) | 
2 | 3390 |  |  |  |  | CC(C)CC(Cc1cccc(Br)c1)C(=O)NCC#N (stereo not given) | 
3 | 1470 |  |  |  |  | CC(C)CC(Oc1cccc(Br)c1)C(=O)NCC#N (stereo not given) | 
4 | 3000 |  |  |  |  | CC(C)CC(Oc1ccc(Br)cc1)C(=O)NCC#N (stereo not given) | 
5 | 43 | 897 | 158 | 458 |  | CC(C)C[C@H](Nc1cscc1Br)C(=O)NCC#N | 71

Further lines, the compound ahead of its results:

Row | SMILES | IC50 [1] [nM] | IC50 [3] [nM] | IC50 [4] [nM] | IC50 [5] [nM] | IC50 [6] [nM] | Activity [2] [nM]
6 | CC(C)CC(Cc1ccc(Br)cc1)C(=O)NCC#N (stereo not given) | 2390 |  |  |  |  | 
7 | CC(C)CC(Sc1ccc(Br)cc1)C(=O)NCC#N (stereo not given) | 675 |  |  |  |  | 
8 | CC(C)C[C@H](Nc1cscc1-c1ccc(N2CCNCC2)cc1)C(=O)NCC#N | 1 | 102 | 123 | 352 | 0.2 | 10
9 | CC(C)C[C@@H](C(=O)NCC#N)c1cccc(-c2ccc(N3CCNCC3)cc2)c1 | 11 |  |  |  |  | 95
10 | CC(C)CC(Nc1cccc(Br)c1)C(=O)NCC#N (stereo not given) | 72 |  |  |  |  | 
11 | CC(C)CC(Nc1ccc(Br)cc1)C(=O)NCC#N (stereo not given) | 208 |  |  |  |  | 
12 | CC(C)CC(Cc1ccccc1Br)C(=O)NCC#N (stereo not given) | 2350 |  |  |  |  | 
13 | CC(C)CC(Oc1ccccc1Br)C(=O)NCC#N (stereo not given) | 1150 |  |  |  |  | 
14 | CC(C)CC(Sc1ccccc1Br)C(=O)NCC#N (stereo not given) | 433 |  |  |  |  | 
15 | CC(C)C[C@H](Nc1cccc(-c2ccc(N3CCNCC3)cc2)c1)C(=O)NCC#N | 2 | 24 | 93 | 108 |  | 61
16 | CC(C)C[C@H](Nc1ccccc1-c1ccc(N2CCNCC2)cc1)C(=O)NCC#N | 3 | 158 | 1810 | 2100 |  | 9
17 | CC(C)CC(Sc1cccc(Br)c1)C(=O)NCC#N (stereo not given) | 684 |  |  |  |  | 
18 | CC(C)C[C@H](Nc1ccc(-c2ccc(N3CCNCC3)cc2)cc1)C(=O)NCC#N | 27 | 34 | 26 | 115 |  | 37
